Source: US20230172957A1, “USE OF ASTRAGALUS MEDICINAL COMPOSITION FOR PREPARING DRUG FOR ENHANCING CANCER THERAPY” (PHYTOHEALTH CORPORATION, priority 2020, published 2023)
Several values for one entry are separate records, joined by “and”; a condition that tells them apart may be missing. Equal entries are not always repeated.

Experiments:
[1] = system: OVCAR cells; assay: Cell viability of ovarian cancer cell line measured by MTS (poisonous dose test and chemotherapeutic synergism); assay type: cell-based
Method: (1) Poisonous dose test (the chemotherapy drug dose for inhibiting the cell growth and leaving 60˜70% of growth capability is selected for subsequent test). (2) The cells are inoculated in 96-well plate and cultured for 24 hours. (3) Test drugs at different concentrations are added in, the test concentrations of the r-APS are 0, 2 and 4 mg/ml, the test concentrations of the astragalus pharmaceutical composition comprising the r-APS and the mannose (r-APS+mannose) are 0, 5 and 10 mg/ml. (4) The dose with a poisoning effect on 35-40% of individual cells is selected as chemotherapy drug dose. (5) The cell viability is tested in 48 and 72 hours respectively after addition. (6) Experiment on chemotherapeutic synergism of the r-APS and the astragalus pharmaceutical composition comprising the r-APS and the mannose (r-APS+mannose). (7) The cells are inoculated in 96-well plate and cultured for 24 hours. (8) The r-APS or the astragalus pharmaceutical composition comprising the r-APS and the mannose (r-APS+mannose) in combination with chemotherapy drug are cultured for 48 hours, the dose of the r-APS and the astragalus pharmaceutical composition comprising the r-APS and the mannose (r-APS+mannose) is three poisonous doses for test, the cell viability is measured by MTS in 48 hours.

[2] = system: HCT116 cells; assay: Cell viability of colorectal cancer cells measured by MTS (poisonous dose test and chemotherapeutic synergism); assay type: cell-based
Method: (1) First of all, poisonous dose test (the chemotherapy drug dose for inhibiting the cell growth and leaving 60˜70% of growth capability is selected for subsequent test) (2) The cells are inoculated in 96-well plate and cultured for 24 hours. (3) Test drugs at different concentrations are added in, the test concentrations of the r-APS are 0, 2 and 4 mg/ml, the test concentrations of the astragalus pharmaceutical composition comprising the r-APS and the mannose (r-APS+mannose) are 0, 5 and 10 mg/ml. (4) The dose with a poisoning effect on 35˜40% of individual cells is selected as chemotherapy drug dose. (5) The cell viability is tested in 48 and 72 hours respectively after addition. (6) Experiment on chemotherapeutic synergism of the r-APS and the astragalus pharmaceutical composition comprising the r-APS and the mannose (r-APS+mannose): (7) The cells are inoculated in 96-well plate and cultured for 24 hours. (8) The r-APS or the astragalus pharmaceutical composition comprising the r-APS and the mannose (r-APS+mannose) in combination with chemotherapy drug are cultured for 48 hours, the doses of the r-APS and the astragalus pharmaceutical composition comprising the r-APS and the mannose (r-APS+mannose) are selected four poisonous doses for test, and then the cell viability is measured by MTS in 48 hours.

[3] = Olaparib 0.2M, poisonous dose test
[4] = Olaparib 0.4M, poisonous dose test
[5] = Olaparib 0.6M, poisonous dose test
[6] = Olaparib 0.8M, poisonous dose test
[7] = Olaparib 1M, poisonous dose test
[8] = Olaparib alone (0 mg/ml test drug), 48 hours
[9] = Regorafenib 0.01 mM alone (0 mg/ml test drug), HCT116, 48 hours
[10] = Regorafenib 0.01 mM, HCT116, poisonous dose test

Structure (SMILES): O=C(c1cc(Cc2n[nH]c(=O)c3ccccc23)ccc1F)N1CCN(C(=O)C2CC2)CC1 [Olaparib]
- Cell viability (%) [1, 3]: 100.55%
- Mean value (MEAN) of three repeats (raw reading) [1, 3]: 0.984
- Cell viability (%) [1, 4]: 90.32%
- Mean value (MEAN) of three repeats (raw reading) [1, 4]: 0.884
- Cell viability (%) [1, 5]: 75.13%
- Mean value (MEAN) of three repeats (raw reading) [1, 5]: 0.735
- cell viability of cancer cells poisoned to ([1]; Olaparib 0.7M, poisonous dose test): 60%
- Cell viability (%) [1, 6]: 48.72%
- Mean value (MEAN) of three repeats (raw reading) [1, 6]: 0.477
- Cell viability (%) [1, 7]: 18.74%
- Mean value (MEAN) of three repeats (raw reading) [1, 7]: 0.183
- Cell viability (%) [1, 8]: 60.189% and 61.4%
- Mean value (MEAN) of three repeats (raw reading) [1, 8]: 0.595 and 0.605

Structure (SMILES): CNC(=O)c1cc(Oc2ccc(NC(=O)Nc3ccc(Cl)c(C(F)(F)F)c3)c(F)c2)ccn1 [Regorafenib]
- viability at 0.01 µM ([2]; Homo sapiens, HCT-116, Regorafenib 0.00001 mM, HCT116, poisonous dose test): 110%
- viability at 0.1 µM ([2]; Homo sapiens, HCT-116, Regorafenib 0.0001 mM, HCT116, poisonous dose test): 107%
- viability at 1 µM ([2]; Homo sapiens, HCT-116, Regorafenib 0.001 mM, HCT116, poisonous dose test): 94.4%
- viability at 10 µM ([2]; Homo sapiens, HCT-116, Regorafenib 0.01 mM, HCT116, poisonous dose test): 60%
- viability at 100 µM ([2]; Homo sapiens, HCT-116, Regorafenib 0.1 mM, HCT116, poisonous dose test): 9.2%
- Mean value (MEAN) of three repeats (raw reading) ([2]; Regorafenib 0.00001 mM, HCT116, poisonous dose test): 1.103
- Mean value (MEAN) of three repeats (raw reading) ([2]; Regorafenib 0.0001 mM, HCT116, poisonous dose test): 1.075
- Mean value (MEAN) of three repeats (raw reading) ([2]; Regorafenib 0.001 mM, HCT116, poisonous dose test): 0.950
- Cell viability (%) [2, 9]: 71.4% and 71.43%
- Mean value (MEAN) of three repeats (raw reading) [2, 9]: 0.641
- Cell viability (%) [2, 10]: 63.5%
- Mean value (MEAN) of three repeats (raw reading) [2, 10]: 0.639
- Mean value (MEAN) of three repeats (raw reading) ([2]; Regorafenib 0.1 mM, HCT116, poisonous dose test): 0.093
